Experiments:
[1] = Pharmacokinetic study in rats after single oral administration (plasma, LC-MS/MS); assay type: in vivo, male Sprague Dawley rats; settings: 5 mg/kg single oral, male SD rats, mean ± SD; for Vd (apparent volume of distribution) / AUC(0-t) / Cmax / MRT / Tmax / half-life: n = 6; for AUC(0-t) / Cmax / MRT / Tmax / half-life / CL/F: Sprague Dawley, rat; for CL/F: n = 6, read-out: CL (CLz/F)
Description: (§1) Seventy-two male Sprague Dawley rats weighing 180–220 g (7-8 weeks old, Certificate no. SCXK (Shandong) 2014-0007) were supplied by Shandong Laboratory Animal Center, Shandong First Medical University & Shandong Academy of Medical Sciences. All rats were kept in plastic cages with 12 h day/night cycle under controlled temperature (about 23–25°C) and fed with standard laboratory rat diet and water ad libitum. All the animal welfare and experimental procedures were approved by the Animal Ethics Committee at the Institute of Materia Medica, Shandong First Medical University & Shandong Academy of Medical Sciences (Jinan, China) and strictly in accordance with the guide for the care and use of laboratory animals (National Research Council of USA, 1996).
For the pharmacokinetic studies, after fasting with free access to water for at least 12 h, twelve rats were randomly divided into two groups (n = 6). The brigatinib and brigatinib-analog were both dissolved in ethanol-0.5% methylcellulose (1 : 19) for dosing. The two group rats were intragastrically administered with brigatinib and brigatinib-analog at the same dose of 5 mg/kg, respectively.
Blood samples, about 100 μL of each, were placed in heparinized Eppendorf tubes predose and at 5, 15, 30, 60, 120, 180, 240, 300, 360, 480, 720, and 1,440 min postdose from the jugular vein of rats. The blood samples were immediately centrifuged at 3,500 rpm for 15 min at 4°C, and the plasma samples were transferred carefully from each collection and stored at −20°C until analysis.
(§2) Experimental data were expressed as mean ± standard deviation (SD). Drug and Statistics 2.0 (DAS 2.0) software package (Mathematical Pharmacology Professional Committee of China, Shanghai, China) was used for estimating pharmacokinetic and brain distribution parameters by a noncompartmental method. Statistical analyses were performed with statistical software IBM SPSS Statistics 20.0 (IBM Corporation, Armonk, NY, USA). Differences between two groups were evaluated by the t-test. A value of p < 0.05 was considered as statistically significant.

[2] = Brain distribution study in rats after single oral administration (brain homogenate, LC-MS/MS); assay type: in vivo, male Sprague Dawley rats; settings: for blood-brain barrier penetration / Kp: 5 mg/kg oral, rats; for Cmax / MRT / Tmax / half-life / Kp: Sprague Dawley, rat; for Cmax / MRT / Tmax / half-life / AUC(0–t): brain, 5 mg/kg single oral, male SD rats, mean ± SD, n = 6; for Kp: male, average AUC(0–t) brain to plasma, 1 g brain taken as 1 mL plasma, read-out: ratio of AUCbrain/AUCplasma
Description: as §1
For the brain distribution studies, the remaining sixty rats were randomly divided into ten groups (n = 6, per group). The distributions of brigatinib and brigatinib-analog in the rat brain were also investigated at the dose of 5 mg/kg after single oral administration to rats. The whole brain was excised immediately at 5, 60, 240, 480, and 1,440 min postdose, thoroughly rinsed with 0.9% saline solution, and wiped with a filter paper. Each brain sample was weighed accurately and homogenized in double distilled water (1 : 5, w/v) by using a tissue homogenizer (IKA, Germany) and frozen at −20°C until analysis.
as §2

[3] = Stability of QC samples in rat plasma under various storage conditions; assay type: in vitro ADME; settings: for Stability under the storage conditions investigated: rat plasma and brain homogenate QC samples, 6 h ambient, −20°C 10 d, three freeze-thaw cycles, 24 h at 4°C autosampler; for Measured conc. after ambient temperature for 6 h / Measured conc. after autosampler at 4°C for 24 h / Measured conc. after three freeze-thaw cycles / Measured conc. after −20°C for 10 d: rat plasma, n = 6
Description: (§3) The stability of brigatinib and brigatinib-analog was evaluated by analysis of low and high concentration levels of QC samples under different conditions (n = 6). The temperature and timing conditions were as follows: 6 h at ambient temperature, stored at −20°C for 10 d, three freeze-thaw cycles, and 24 h at 4°C in an autosampler. The measured concentrations were all within acceptable limits (±15% of the nominal concentrations) during the entire validation. […] Carryover was evaluated by determining the peak areas for brigatinib and brigatinib-analog by injecting blank matrix samples sequentially after the highest calibration standard sample injection. Furthermore, no carryover effect was obtained in this study.

[4] = Stability of QC samples in rat brain homogenate under various storage conditions; assay type: in vitro ADME; settings: n = 6
Description: as §3

[5] = test system: the triple mutation; design: method as in PMID 28287083, PMID 27780853; settings: read-out: IC50 against the triple mutation; cited from earlier work

SMILES | Vd (apparent volume of distribution) [1] | AUC(0-t) [1] | Cmax [1] | MRT [1] | Tmax [1] | half-life [1] | CL/F [1] | blood-brain barrier penetration [2] | Cmax [2] | MRT [2] | Tmax [2] | half-life [2] | AUC(0–t) [2] | Kp [2] | Stability under the storage conditions investigated [3] | Measured conc. after ambient temperature for 6 h ([3]; spiked 2.0 ng/mL) | Measured conc. after autosampler at 4°C for 24 h ([3]; spiked 2.0 ng/mL) | Measured conc. after three freeze-thaw cycles ([3]; spiked 2.0 ng/mL) | Measured conc. after −20°C for 10 d ([3]; spiked 2.0 ng/mL) | Measured conc. after ambient temperature for 6 h ([3]; spiked 1600 ng/mL) | other results
COc1cc(N2CCC(N(C)C)CC2)ccc1Nc1ncc(Cl)c(Nc2ccccc2P(C)(C)=O)n1 [Brigatinib-analog] | 3.43 ± 0.96 L/kg | 4370 ng·h/mL | 734 ± 83.1 ng/mL | 5.48 h | 4.33 h | 2.01 ± 0.496 h | 21 ± 6 mL/min/kg | could both penetrate the blood-brain barrier | 45.8 ± 11.8 ng/g | 6.32 h | 4 h | 4.27 ± 0.667 h | 23196.08 ± 4932.95^∗ ng/g·min | 0.088 | stable | 2.03 ± 0.11 ng/mL | 1.89 ± 0.12 ng/mL | 2.01 ± 0.09 ng/mL | 1.95 ± 0.12 ng/mL | 1638.54 ± 97.76 ng/mL | Measured conc. after autosampler at 4°C for 24 h ([3]; spiked 1600 ng/mL): 1582.61 ± 101.88 ng/mL; Measured conc. after three freeze-thaw cycles ([3]; spiked 1600 ng/mL): 1578.36 ± 125.20 ng/mL; Measured conc. after −20°C for 10 d ([3]; spiked 1600 ng/mL): 1705.49 ± 109.83 ng/mL; Measured conc. after ambient temperature for 6 h ([4]; spiked 1.0 ng/mL): 1.04 ± 0.05 ng/mL; Measured conc. after autosampler at 4°C for 24 h ([4]; spiked 1.0 ng/mL): 0.97 ± 0.06 ng/mL; Measured conc. after three freeze-thaw cycles ([4]; spiked 1.0 ng/mL): 0.98 ± 0.07 ng/mL; Measured conc. after −20°C for 10 d ([4]; spiked 1.0 ng/mL): 1.07 ± 0.11 ng/mL; Measured conc. after ambient temperature for 6 h ([4]; spiked 800 ng/mL): 828.64 ± 66.54 ng/mL; Measured conc. after autosampler at 4°C for 24 h ([4]; spiked 800 ng/mL): 783.28 ± 32.39 ng/mL; Measured conc. after three freeze-thaw cycles ([4]; spiked 800 ng/mL): 833.68 ± 56.59 ng/mL; Measured conc. after −20°C for 10 d ([4]; spiked 800 ng/mL): 846.09 ± 53.83 ng/mL; IC50 [5]: < 100 nM
COc1cc(N2CCC(N3CCN(C)CC3)CC2)ccc1Nc1ncc(Cl)c(Nc2ccccc2P(C)(C)=O)n1 [Brigatinib] | 5.66 ± 1.94 L/kg | 4360 ng·h/mL | 538 ± 186 ng/mL | 6.73 h | 4.33 h | 3.16 ± 0.343 h | 22 ± 10 mL/min/kg | could both penetrate the blood-brain barrier | 68.9 ± 21.6 ng/g | 7.48 h | 5.5 h | 5.32 ± 1.95 h | 58255.81 ± 13725.10 ng·min/g | 0.223 | stable | 2.10 ± 0.12 ng/mL | 1.90 ± 0.10 ng/mL | 1.94 ± 0.09 ng/mL | 2.05 ± 0.17 ng/mL | 1585.06 ± 98.31 ng/mL | Measured conc. after autosampler at 4°C for 24 h ([3]; spiked 1600 ng/mL): 1645.17 ± 118.52 ng/mL; Measured conc. after three freeze-thaw cycles ([3]; spiked 1600 ng/mL): 1678.34 ± 95.87 ng/mL; Measured conc. after −20°C for 10 d ([3]; spiked 1600 ng/mL): 1719.73 ± 107.09 ng/mL; Measured conc. after ambient temperature for 6 h ([4]; spiked 1.0 ng/mL): 1.06 ± 0.08 ng/mL; Measured conc. after autosampler at 4°C for 24 h ([4]; spiked 1.0 ng/mL): 0.96 ± 0.05 ng/mL; Measured conc. after three freeze-thaw cycles ([4]; spiked 1.0 ng/mL): 1.02 ± 0.06 ng/mL; Measured conc. after −20°C for 10 d ([4]; spiked 1.0 ng/mL): 0.97 ± 0.06 ng/mL; Measured conc. after ambient temperature for 6 h ([4]; spiked 800 ng/mL): 788.85 ± 69.25 ng/mL; Measured conc. after autosampler at 4°C for 24 h ([4]; spiked 800 ng/mL): 813.16 ± 72.23 ng/mL; Measured conc. after three freeze-thaw cycles ([4]; spiked 800 ng/mL): 847.44 ± 57.65 ng/mL; Measured conc. after −20°C for 10 d ([4]; spiked 800 ng/mL): 760.29 ± 48.33 ng/mL; IC50 [5]: < 100 nM

— article PMC6915135, “Simultaneous Quantification of Brigatinib and Brigatinib-Analog in Rat Plasma and Brain Homogenate by LC-MS/MS: Application to Comparative Pharmacokinetic and Brain Distribution Studies” (International Journal of Analytical Chemistry, 2019)
